# From publication PMC5874699, “Antimicrobial and Antibiofilm Activity of UP-5, an Ultrashort Antimicrobial Peptide Designed Using Only Arginine and Biphenylalanine” (Pharmaceuticals, 2018)
# Assays:
# [1] = test system: P. aeruginosa (ATCC BAA-2114); assay: Broth microdilution checkerboard, UP-5 with antibiotics; assay type: cell-based, Pseudomonas aeruginosa
# Source text: (§1) All bacterial susceptibility, biofilm, and synergistic assays of peptides, antibiotics, and peptides-antibiotics combinations used bacterial strains obtained from the American Type Tissue Culture Collection (ATCC, Manassas, VA, USA) that states the mechanism of resistance for each strain according to ATCC number. Gram-positive bacteria were represented by five strains, the wild type strain Staphylococcus aureus (ATCC 29213) and methicillin-resistant S. aureus (MRSA) (ATCC 33591) in addition to clinically isolated strains S. aureus (ATCC BAA-41& 43300) and Enterococcus faecalis (ATCC BAA-2316). The Gram-negative bacteria strains were represented by wild type strains of Escherichia coli (ATCC 25922 & 35218) and Pseudomonas aeruginosa (ATCC 27853) as well as the clinically isolated multidrug-resistant strain P. aeruginosa (ATCC BAA-2114). The bacteria were cultured onto Muller Hinton Agar (Scharlab, S.L, Barcelona, Spain). Mueller Hinton Broth (Oxoid Ltd., Basingstoke, UK) was used to prepare all bacterial suspensions and to dissolve the peptides and the antibiotics. The assay was performed in sterile 96-well polypropylene microtiter plates.
# (§2) According to the broth microdilution checkerboard technique, the MIC and MBC values of peptide-antibiotics combinations against wild type and multidrug resistant bacterial strains were determined. Serial concentrations of peptide and each antibiotic were prepared in the range of 0.005–100 μM. In each well of a 96-well microtiter plate, 25 μL of each peptide concentration were added to 25 μL of each antibiotic concentration which is followed by adding 50 μL of diluted bacterial suspension (10^6 CFU/mL) to each well. The prepared concentrations of peptide and each antibiotic were arranged into rows and columns, respectively, in a 96-well microtiter plate according the checkerboard technique. Then as described previously (see Section 2.4.1), the procedure was followed. All MIC and MBC determinations of all assays were made in triplicate.
# (§3) The fractional inhibitory concentration (FIC) is defined as the inhibitory concentration of the antimicrobial combination divided by that of the single antimicrobial component. To calculate FIC index for peptide-antibiotic combinations, the following equation was used:(1) FIC index=MIC of drug X in combination/MIC of drug X alone+MIC of drug Y in combination/MIC of drug Y alone
# (§4) The FIC indices were interpreted as follows: ≤0.5: synergistic activity, 0.5–1: additive activity, 1–4 indifferent, >4: antagonism. Interpretation and assessment of the FIC indices were performed according to the broth microdilution checkerboard technique.
# S. aureus (ATCC BAA-41) [2] = assay: as above; assay type: cell-based, Staphylococcus aureus
# Source text: as §1, §2, §3, §4
# S. aureus (ATCC 29213) = assay: as above; assay type: cell-based, Staphylococcus aureus
# Source text: as §1, §2, §3, §4
# S. aureus (ATCC 33591) = assay: as above; assay type: cell-based, Staphylococcus aureus
# Source text: as §1, §2, §3, §4
# S. aureus (ATCC 43300) [3] = assay: as above; assay type: cell-based, Staphylococcus aureus
# Source text: as §1, §2, §3, §4
# [4] = test system: Staphylococcus aureus (ATCC 29213); assay type: cell-based; details: S. aureus ATCC 29213, antibiotic alone, triplicate
# Source text: as §1
# (§5) All bacterial susceptibility assays were conducted according to the microbroth dilution method outlined by the Clinical and Laboratory Standards Institute (CLSI) guidelines.
# (§6) Briefly, pre-sterilized MHB was used as a growth medium for organisms obtained from stock media with glycerol. Bacterial cells were grown overnight in MHB and diluted to 10^6 CFU/mL in the same medium prior to use. For peptide, serial concentrations in the range of 0.5–100 μM were prepared. Then, 50 μL of each peptide concentration and 50 µL of diluted bacterial suspension were added to each well of a 96-well microtiter plate. Peptide solutions were prepared by dissolving the peptide in sterile MHB. Then, the plates were incubated overnight in a humidified atmosphere, and at 37 °C. Bacterial growth was determined by measuring the optical density (OD) at λ = 600 nm using an ELISA plate reader (Epoch, BioTek, Winooski, VT, USA) and the minimum inhibitory concentration (MIC) was determined.
# (§7) As described in the previous section, the MIC and MBC values of antibiotics employed in this study were determined against subjected bacterial strains via preparing different concentrations of each antibiotic.
# S. aureus (ATCC BAA-41) [5] = assay type: cell-based, Staphylococcus aureus; details: S. aureus ATCC BAA-41, antibiotic alone, triplicate
# Source text: as §1, §5, §6, §7
# S. aureus (ATCC 43300) [6] = assay type: cell-based, Staphylococcus aureus; details: S. aureus ATCC 43300, antibiotic alone, triplicate
# Source text: as §1, §5, §6, §7
# [7] = test system: P. aeruginosa (ATCC BAA-2114); assay type: cell-based, Pseudomonas aeruginosa; details: P. auroginosa ATCC BAA-2114, antibiotic alone, triplicate
# Source text: as §1, §5, §6, §7
# [8] = test system: methicillin-resistant S. aureus (MRSA) (ATCC 33591); assay: MIC/MBC, microbroth dilution (CLSI); assay type: cell-based, Staphylococcus aureus; details: S. aureus ATCC 33591, antibiotic alone, triplicate
# Source text: as §1, §5, §6, §7
compound,measurement,setting,value
"CO[C@H]1/C=C/O[C@@]2(C)Oc3c(C)c(O)c4c(O)c(c(/C=N/N5CCN(C)CC5)c(O)c4c3C2=O)NC(=O)/C(C)=C\C=C\[C@H](C)[C@H](O)[C@@H](C)[C@@H](O)[C@@H](C)[C@H](OC(C)=O)[C@@H]1C [Rifampicin, rifampicin]",Effect of the combination according to FIC value,"[1]; P. aeruginosa (ATCC 2114 as printed), antibiotic-UP-5 combination",synergistic (≤0.5: synergistic activity)
same,Antibiotics MIC in Combination,"[1]; P. auroginosa ATCC BAA-2114, antibiotic in combination with UP-5, checkerboard, triplicate",0.25 µM
same,Effect of the combination according to FIC value,"S. aureus (ATCC BAA-41) [2]; S. aureus (ATCC BAA-41), antibiotic-UP-5 combination",indifferent (1–4 indifferent)
same,Antibiotics Reduction in MIC (%),"S. aureus (ATCC BAA-41) [2]; S. aureus ATCC BAA-41, antibiotic MIC in combination with UP-5 compared to MIC alone",60%
same,Antibiotics MIC in Combination,"S. aureus (ATCC BAA-41) [2]; S. aureus ATCC BAA-41, antibiotic in combination with UP-5, checkerboard, triplicate",0.002 µM
same,Effect of the combination according to FIC value,"S. aureus (ATCC 29213); S. aureus (ATCC 29213), antibiotic-UP-5 combination",indifferent (1–4 indifferent)
same,Antibiotics Reduction in MIC (%),"S. aureus (ATCC 29213); S. aureus ATCC 29213, antibiotic MIC in combination with UP-5 compared to MIC alone",<50%
same,Antibiotics MIC in Combination,"S. aureus (ATCC 29213); S. aureus ATCC 29213, antibiotic in combination with UP-5, checkerboard, triplicate",0.025 µM
same,Effect of the combination according to FIC value,"S. aureus (ATCC 33591); S. aureus (ATCC 33591), antibiotic-UP-5 combination",synergistic (≤0.5: synergistic activity)
same,Antibiotics Reduction in MIC (%),"S. aureus (ATCC 33591); S. aureus ATCC 33591, antibiotic MIC in combination with UP-5 compared to MIC alone",87.5%
same,Antibiotics MIC in Combination,"S. aureus (ATCC 33591); S. aureus ATCC 33591, antibiotic in combination with UP-5, checkerboard, triplicate",0.005 µM
same,Effect of the combination according to FIC value,"S. aureus (ATCC 43300) [3]; S. aureus (ATCC 43300), antibiotic-UP-5 combination",synergistic (≤0.5: synergistic activity)
same,Antibiotics Reduction in MIC (%),"S. aureus (ATCC 43300) [3]; S. aureus ATCC 43300, antibiotic MIC in combination with UP-5 compared to MIC alone",87.5%
same,Antibiotics MBC Alone,[4]; 99.9% killing,0.025 µM
same,Antibiotics MIC Alone,[4]; microbroth dilution,0.025 µM
same,Antibiotics MBC Alone,S. aureus (ATCC BAA-41) [5]; 99.9% killing,0.005 µM
same,Antibiotics MIC Alone,S. aureus (ATCC BAA-41) [5]; microbroth dilution,0.005 µM
same,Antibiotics MBC Alone,S. aureus (ATCC 43300) [6]; 99.9% killing,1 µM
same,Antibiotics MIC Alone,S. aureus (ATCC 43300) [6]; microbroth dilution,1 µM
same,Antibiotics MBC Alone,[7]; 99.9% killing,50 µM
same,Antibiotics MIC Alone,[7]; microbroth dilution,50 µM
same,Antibiotics MBC Alone,[8]; 99.9% killing,0.04 µM
same,Antibiotics MIC Alone,[8]; microbroth dilution,0.04 µM
